From patent publication US10961200B2, “Small molecule inhibitors of lactate dehydrogenase and methods of use thereof” (THE UNITED STATES OF AMERICA, AS REPRESENTED BY THE …, priority 2014, dated 2021)

Experiments:
Human LDHA = Human LDHA (Homo sapiens (Human), UniProt P00338); assay: human LDHA primary biochemical assay (resazurin/diaphorase coupled, fluorescence); conditions: LDHA inhibitory activity
Text: Test compounds were placed in a Greiner Bio-One (Monroe, N.C.) 1536-well black solid bottom assay plate. 200 millimolar (mM) Tris HCl, pH 7.4, 100 micromolar […] EDTA and 0.01% TWEEN-20™, final concentration, was used as the assay buffer. The LDHA reagent was 2 nanomolar (nM) Human LDHA (Meridian Life Science, Inc., Memphis, Tenn.), final concentration, in assay buffer.

MiaPaCa2 cells = assay: cell-based HT lactate assay, colorimetric/fluorometric detection (inhibition of lactate production); conditions: class symbols, 0 to 3 pluses
Protocol: Cell-based HT Lactate assay is a miniaturized Biovision Lactate Colorimetric/Fluorometric Assay Kit (Cat #K607-100). The assay is roughly a 3.5 hour assay run in a 1536 plate format. Cell number optimization should be run for each cell line to achieve an optimal number in which lactate production equals roughly 90% of the standard curve range. Cell number per well optimization has been performed with the following cell lines: MiaPaCa2—500 cells/well, SNU398—500 cells/well, and P493—500 cells/well.
The lactate activity in Table 8 is represented by 0 to 3 pluses as follows: +++<1 μM; ++1-10 μM; +10-57 μM; and −>57 μM.

[1] = assay of Example 1, activity level classes
[2] = activity level based on IC50 (Table 7)

IC50 (Human LDHA; [2]) [nM] | IC50 (MiaPaCa2 cells; Homo sapiens, MIA PaCa-2) [nM] | SMILES | IC50 (Human LDHA; [1]) [nM] | IC50 (MiaPaCa2 cells) [nM]
– | – | Cc1ccc(-c2cc(-c3nn(-c4nc(C(=O)O)cs4)c(CC4CC4)c3Cc3ccc(S(N)(=O)=O)cc3)ccc2F)cc1 [Compound 284] | < 100 | < 1000
– | – | Cc1ccc(-c2cc(-c3nn(-c4nc(C(=O)O)cs4)c(CC4CC4)c3Cc3ccc(S(N)(=O)=O)c(F)c3)ccc2F)cc1 [Compound 288] | < 100 | < 1000
– | – | NS(=O)(=O)c1ccc(Cc2c(-c3cccc(-c4ccccc4)c3)nn(-c3nc(C(=O)O)cs3)c2CC2CC2)c(F)c1 [Compound 290] | < 100 | < 1000
– | – | N[S+](=O)([O-])c1ccc(Cc2c(-c3ccc(F)c(-c4ccc(C5CC5)cc4)c3)nn(-c3nc(C(=O)O)cs3)c2CC2CC2)cc1 [Compound 294] | < 100 | < 1000
– | – | NS(=O)(=O)c1ccc(Cc2c(-c3ccc(F)c(Br)c3)nn(-c3nc(C(=O)O)cs3)c2CC2CC2)cc1 [Compound 296] | < 100 | 1000 to 10000
– | – | NS(=O)(=O)c1ccc(Cc2c(-c3cccc(-c4ccccc4)c3)nn(-c3nc(C(=O)O)cs3)c2CC(F)(F)F)cc1 [Compound 304] | 100 to 1000 | 10000 to 57000
– | – | CC(C)c1ccc(-c2cc(-c3nn(-c4nc(C(=O)O)cs4)c(CC4CC4)c3Cc3ccc([S+](N)(=O)[O-])cc3)ccc2F)cc1 [Compound 306] | < 100 | < 1000
– | – | Cc1ccc(-c2cc(-c3nn(-c4nc(C(=O)O)cs4)c(CC4CC4)c3Cc3ccc(S(N)(=O)=O)cc3F)ccc2F)cc1 [Compound 307] | < 100 | < 1000
– | – | N[S+](=O)([O-])c1ccc(Cc2c(-c3ccc(F)c(-c4ccc(F)cc4)c3)nn(-c3nc(C(=O)O)cs3)c2CC2CC2)c(F)c1 [Compound 309] | < 100 | < 1000
– | – | N[S+](=O)([O-])c1ccc(Cc2c(-c3ccc(F)c(-c4ccc(F)cc4)c3)nn(-c3nc(C(=O)O)cs3)c2CC2CC2)cc1 [Compound 310] | < 100 | < 1000
– | – | N[S+](=O)([O-])c1ccc(Cc2c(-c3ccc(F)c(-c4cccc(F)c4)c3)nn(-c3nc(C(=O)O)cs3)c2CC2CC2)c(F)c1 [Compound 324] | < 100 | < 1000
– | – | N[S+](=O)([O-])c1ccc(Cc2c(-c3ccc(F)c(-c4cccc(F)c4)c3)nn(-c3nc(C(=O)O)cs3)c2CC2CC2)cc1F [Compound 326] | < 100 | < 1000
– | – | COc1cccc(-c2cc(-c3c(Cc4ccc(S(N)(=O)=O)cc4F)c(CC4CC4)nn3-c3nc(C(=O)O)cs3)ccc2F)c1 [Compound 327] | 1000 to 57000 | 10000 to 57000
– | – | COc1cccc(-c2cc(-c3nn(-c4nc(C(=O)O)cs4)c(CC4CC4)c3Cc3ccc(S(N)(=O)=O)c(F)c3)ccc2F)c1 [Compound 330] | < 100 | < 1000
– | – | NS(=O)(=O)c1ccc(Cc2c(-c3cccc(-c4ccccc4)c3)nn(-c3nc(C(=O)O)cs3)c2CC2CC2)cc1F [Compound 331] | < 100 | < 1000
– | – | Cc1ccc(-c2cccc(-c3nn(-c4nc(C(=O)O)cs4)c(CC4CC4)c3Cc3ccc(S(N)(=O)=O)c(F)c3)c2)cc1 [Compound 332] | < 100 | < 1000
– | – | NS(=O)(=O)c1ccc(Cc2c(-c3cccc(OC4CCCC4)c3)nn(-c3nc(C(=O)O)cs3)c2CC2CC2)cc1F [Compound 336] | < 100 | < 1000
– | – | NS(=O)(=O)c1ccc(Cc2c(-c3cccc(OC4CCCC4)c3)nn(-c3nc(C(=O)O)cs3)c2CC2CC2)cc1 [Compound 337] | < 100 | < 1000
< 100 | < 1000 | N[S+](=O)([O-])c1ccc(Cc2c(-c3cccc(OC4CCCC4)c3)nn(-c3nc(C(=O)O)cs3)c2CC2CC2)c(F)c1 [Compound 338] | – | –
< 100 | – | N[S+](=O)([O-])c1ccc(Cc2c(-c3ccc(F)c(-c4ccccc4F)c3)nn(-c3nc(C(=O)O)cs3)c2CC2CC2)cc1F [Compound 366] | – | < 1000
< 100 | – | N[S+](=O)([O-])c1ccc(Cc2c(-c3ccc(F)c(-c4ccccc4)c3)nn(-c3nc(C(=O)O)cs3)c2CC2CC2)cc1F [Compound 367] | – | < 1000
1000 to 57000 | – | NS(=O)(=O)c1cccc(Cc2c(-c3ccc(F)c(-c4cccc(F)c4)c3)nn(-c3nc(C(=O)O)cs3)c2CC2CC2)c1 [Compound 368] | – | 10000 to 57000
< 100 | – | N[S+](=O)([O-])c1ccc(Cc2c(-c3ccc(F)c(C4=CCNCC4)c3)nn(-c3nc(C(=O)O)cs3)c2CC2CC2)cc1F [Compound 369] | – | 10000 to 57000
< 100 | – | N[S+](=O)([O-])c1ccc(Cc2c(-c3cccc(-c4cccc(F)c4)c3)nn(-c3nc(C(=O)O)cs3)c2CC2CC2)cc1 [Compound 370] | – | 1000 to 10000
< 100 | – | N=[S+](N)([O-])c1ccc(Cc2c(-c3ccc(F)c(-c4cccc(F)c4)c3)nn(-c3nc(C(=O)O)cs3)c2CC2CC2)cc1F (stereo not shown) [Compound 371] | – | < 1000
< 100 | – | N[S+](=O)([O-])c1ccc(Cc2c(-c3ccc(F)c(C4CCCCC4)c3)nn(-c3nc(C(=O)O)cs3)c2CC2CC2)cc1F [Compound 374] | – | < 1000
< 100 | – | N[S+](=O)([O-])c1ccc(Cc2c(-c3ccc(F)c(C4=COCCC4)c3)nn(-c3nc(C(=O)O)cs3)c2CC2CC2)cc1F [Compound 379] | – | < 1000
< 100 | – | N[S+](=O)([O-])c1ccc(Cc2c(-c3ccc(F)c(C4=CCN(C(=O)C5CC5)CC4)c3)nn(-c3nc(C(=O)O)cs3)c2CC2CC2)cc1F [Compound 380] | – | 1000 to 10000
< 100 | – | N[S+](=O)([O-])c1ccc(Cc2c(-c3ccc(F)c(C4CCC4)c3)nn(-c3nc(C(=O)O)cs3)c2CC2CC2)cc1F [Compound 382] | – | < 1000

SMILES | IC50 (Human LDHA; [2]) [nM] | IC50 (MiaPaCa2 cells; Homo sapiens, MIA PaCa-2) [nM] | IC50 (Human LDHA; [1]) [nM] | IC50 (MiaPaCa2 cells) [nM]
NS(=O)(=O)c1ccc(Cc2c(-c3cccc(-c4cccc(F)c4)c3)nn(-c3nc(C(=O)O)cs3)c2CC2CC2)cc1F [Compound 365] | < 100 | – | – | < 1000
NS(=O)(=O)c1ccc(Cc2c(-c3cccc(C4CCCC4)c3)nn(-c3nc(C(=O)O)cs3)c2CC2CC2)cc1 [Compound 372] | < 100 | – | – | 1000 to 10000
NS(=O)(=O)c1ccc(Cc2c(-c3ccc(F)c(C4CCCC4)c3)nn(-c3nc(C(=O)O)cs3)c2CC2CC2)cc1F [Compound 373] | < 100 | – | – | < 1000
NS(=O)(=O)c1ccc(Cc2c(-c3ccc(F)c(C4C5CC6CC(C5)CC4C6)c3)nn(-c3nc(C(=O)O)cs3)c2CC2CC2)cc1F (stereo not shown) [Compound 375] | 100 to 1000 | – | – | 1000 to 10000
N[S+](=O)([O-])c1ccc(Cc2c(-c3cccc(S(F)(F)(F)(F)F)c3)nn(-c3nc(C(=O)O)cs3)c2CC2CC2)cc1F [Compound 376] | < 100 | – | – | < 1000
CCOC(=O)c1csc(-n2nc(-c3ccc(F)c(-c4cccc(F)c4)c3)c(Cc3ccc([S+](N)(=O)[O-])c(F)c3)c2CC2CC2)n1 [Compound 377] | > 57000 | – | – | > 57000
NS(=O)(=O)c1ccc(Cc2c(-c3ccc(F)c(CC4CC4)c3)nn(-c3nc(C(=O)O)cs3)c2CC2CC2)cc1F [Compound 378] | < 100 | – | – | < 1000
CCC(C)(C)c1cc(-c2nn(-c3nc(C(=O)O)cs3)c(CC3CC3)c2Cc2ccc(S(N)(=O)=O)c(F)c2)ccc1F [Compound 381] | < 100 | – | – | < 1000
CC(C)c1cc(-c2nn(-c3nc(C(=O)O)cs3)c(CC3CC3)c2Cc2ccc(S(N)(=O)=O)c(F)c2)ccc1F [Compound 383] | < 100 | – | – | < 1000
